Assays:
[1] = tested on: MCF7-tet-off-Luc (-Doxy) and 231-Luc cells; assay: In vivo lung metastasis assay (BLI); parameters: species or system NSG mice; details: 10 mg/kg
Method: For in vivo lung metastasis assay, MCF7-tet-off-Luc cells were grown for 3 days in the absence of Doxycyclin (−Doxy) and injected into the tail vein of the 8 week-old female NSG mice (1×10^6 cells/200 μl of PBS). After inoculation, the mice were randomly assigned to vehicle control and treatment groups. Vehicle (10% DMSO/90% PBS) and compound 1 (10 mg/kg) were injected i.p. 2 hrs after inoculation. The retention of the cells in the lung was monitored by noninvasive bioluminescence imaging for 24 hrs. For luciferase detection, 150 mg/mL D-luciferin (Caliper Life Sciences) in PBS was injected i.p. before imaging. Photometric measurement of metastasis was done by living Image software (Xenogen). In separate groups of mice, 231-Luc cells (1×10^6/200 μl of PBS) were injected, and the metastasis burden in the lung was quantified for 3 weeks.

Br-001 tumor = assay: TNBC-PDX Br-001 model; type: in vivo, nude mice; details: 10 mg/kg
Method: For the PDX models, Br-001 tumor fragments derived from a patient with TNBC (University of Maryland, Translational Core Facility) were inoculated subcutaneously in female NOD scid gamma (NSG) mice (P1). After P1 tumors were grown, tumors were excised, fragmented and inoculated to a new group of NSG mice (P2). After P2 tumors were grown, they were excised, fragmented, and inoculated into nude mice (P3). When the size of the tumors reached 200˜250 mm^3, mice were randomized into two groups, and received i.p. injection of vehicle or compound 1 (10 mg/kg) twice a week for 11 days.

O=C(O)C1C2C=CC(C2)C1C(=O)Nc1ccc(Cl)c(Cl)c1 (stereo not shown) [compound 1, 3-(N-(3,4-dichlorophenyl)carbamoyl)-5-norbornene-2-carboxylic acid]
body weight and general health ([1]; NSG mice): did not significantly decrease body weight | colonization and outgrowth in the lung versus vehicle ([1]; 231-Luc cells, 3 weeks): significantly lower | metastatic homing to the mouse lungs ([1]; MCF7-tet-off-Luc (-Doxy) cells): no influence | lung retention of the cells ([1]; MCF7-tet-off-Luc (-Doxy) cells, 24 hrs): significantly reduced | Ki-67 expression (Br-001 tumor; i.p.): markedly reduced | tumor volume (Br-001 tumor; i.p., 11 days): significant decrease | body weight and general health (Br-001 tumor; nude mice): did not significantly decrease body weight
